Measurements reported in patent publication US20080021030A1, “Substituted Pyrazoles As Ppar Agonists” (priority 2003, published 2008).

Legend:
Experiment in all cases: Transient transfection (transactivation) assay in CV-1 cells, GAL4-PPAR LBD chimera, SPAP reporter
Assay type in all cases: cell-based
hPPAR delta = target: T1, hPPAR delta (Homo sapiens, UniProt Q03181); details: read-out: EC50 μM HPPARδ
T1 construct: expressed in transfected cells; host or cells: CV-1 cells
T1 sequence (Q03181 211-439 limits assumed): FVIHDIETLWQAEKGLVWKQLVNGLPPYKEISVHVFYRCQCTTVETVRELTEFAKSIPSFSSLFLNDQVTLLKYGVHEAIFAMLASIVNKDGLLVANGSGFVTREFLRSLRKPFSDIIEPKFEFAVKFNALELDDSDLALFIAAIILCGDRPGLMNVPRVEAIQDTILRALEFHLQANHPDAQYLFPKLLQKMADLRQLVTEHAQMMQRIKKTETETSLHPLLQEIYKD
Source text: (§1) Compounds were screened for functional potency in transient transfection assays in CV-1 cells for their ability to activate the PPAR subtypes (transactivation assay). A previously established chimeric receptor system was utilized to allow comparison of the relative transcriptional activity of the receptor subtypes on the same target gene and to prevent endogenous receptor activation from complicating the interpretation of results. See, for example, Lehmann, J. M.; Moore, L. B.; Smith-Oliver, T. A.; Wilkison, W. O.; Willson, T. M.; Kliewer, S. A., An antidiabetic thiazolidinedione is a high affinity ligand for peroxisome proliferator-activated receptor gamma (PPARgamma), J. Biol. Chem., 270, 12953-6 (1995). The ligand binding domains for murine and human PPAR alpha, PPAR gamma, and PPAR delta were each fused to the yeast transcription factor GAL4 DNA binding domain. CV-1 cells were transiently transfected with expression vectors for the respective PPAR chimera along with a reporter construct containing five copies of the GAL4 DNA binding site driving expression of secreted placental alkaline phosphatase (SPAP) and beta-galactosidase. After 16 h, the medium was exchanged to DME medium supplemented with 10% delipidated fetal calf serum and the test compound at the appropriate concentration. After an additional 24 h, cell extracts were prepared and assayed for alkaline phosphatase and β-galactosidase activity. Alkaline phosphatase activity was corrected for transfection efficiency using the beta-galactosidase activity as an internal standard (see, for example, Kliewer, S. A., et. al. Cell 83, 813-819 (1995)). Rosiglitazone (BRL 49653) was used as a positive control in the hPPAR gamma assay. The positive control in the hPPAR alpha assays was 2-4-[2-(3-[4-fluorophenyl]-1-heptylureido)ethyl]-phenoxy-(2-methyl propionic acid (WO 97/36579). The positive control for PPAR delta assays was 2-{2-methyl-4-[({4-methyl-2-{trifluoromethyl)phenyl]-1,3-thiazol-5-yl}methyl)sulfanyl]phenoxy}acetic acid (WO 01/00603). The positive control was (5-{4-[2-(Methyl-pyridin-2-yl-amino)-ethoxy]-benzyl}-thiazolidine-2,4-dione (J. Med. Chem. 1994, 37(23), 3977), for PPAR gamma.
(§2) Activities in three hPPAR subtypes are reported in the table and are expressed in micromolar.

hPPAR alpha = target: T2, hPPAR alpha (Homo sapiens, UniProt Q07869); details: read-out: EC50 μM HPPARα
T2 construct: expressed in transfected cells; host or cells: CV-1 cells
T2 sequence (Q07869 239-466 limits assumed): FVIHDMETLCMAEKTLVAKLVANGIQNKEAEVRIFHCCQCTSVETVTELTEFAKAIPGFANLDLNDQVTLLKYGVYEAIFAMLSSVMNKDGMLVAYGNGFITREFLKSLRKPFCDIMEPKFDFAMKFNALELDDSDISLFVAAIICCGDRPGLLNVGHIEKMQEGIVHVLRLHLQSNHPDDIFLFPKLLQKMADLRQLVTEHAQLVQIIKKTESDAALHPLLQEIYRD
Source text: as §1, §2

hPPAR gamma = target: T3, hPPAR gamma (Homo sapiens, UniProt P37231); details: read-out: EC50 μM HPPARγ
T3 construct: expressed in transfected cells; host or cells: CV-1 cells
T3 sequence (P37231 238-503 limits assumed): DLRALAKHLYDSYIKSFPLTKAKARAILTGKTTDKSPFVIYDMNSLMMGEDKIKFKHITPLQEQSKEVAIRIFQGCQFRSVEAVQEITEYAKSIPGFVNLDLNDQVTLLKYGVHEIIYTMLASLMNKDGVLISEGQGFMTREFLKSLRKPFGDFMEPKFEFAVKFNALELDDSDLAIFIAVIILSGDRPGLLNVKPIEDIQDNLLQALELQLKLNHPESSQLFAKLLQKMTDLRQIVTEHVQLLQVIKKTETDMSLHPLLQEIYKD
Source text: Compounds were screened for functional potency in transient transfection assays in CV-1 cells for their ability to activate the PPAR subtypes (transactivation assay). A previously established chimeric receptor system was utilized to allow comparison of the relative transcriptional activity of the receptor subtypes on the same target gene and to prevent endogenous receptor activation from complicating the interpretation of results. […] The ligand binding domains for murine and human PPAR alpha, PPAR gamma, and PPAR delta were each fused to the yeast transcription factor GAL4 DNA binding domain. CV-1 cells were transiently transfected with expression vectors for the respective PPAR chimera along with a reporter construct containing five copies of the GAL4 DNA binding site driving expression of secreted placental alkaline phosphatase (SPAP) and beta-galactosidase. After 16 h, the medium was exchanged to DME medium supplemented with 10% delipidated fetal calf serum and the test compound at the appropriate concentration. After an additional 24 h, cell extracts were prepared and assayed for alkaline phosphatase and β-galactosidase activity.

Row | EC50 (hPPAR delta) [µM] | EC50 (hPPAR alpha) [µM] | EC50 (hPPAR gamma) [µM] | SMILES
1 | 5.45 | 0.014 |  | Cc1cc(CNC(=O)c2cc(-c3ccc(C(C)(C)C)cc3)n(C)n2)ccc1OC(C)(C)C(=O)O [Example 1, 2-[(4-{[({5-[4-(1,1-dimethylethyl)phenyl]-1-methyl-1H-pyrazol-3-yl)carbonyl)amino]methyl}-2-methylphenyl)oxy]-2-methylpropanoic acid]
2 | 0.82 | 0.018 | 0.044 | Cc1cc(CNC(=O)c2cc(-c3ccc(C(C)C)cc3)nn2C)ccc1OC(C)(C)C(=O)O [Example 2]
3 | > 10 | 0.1 | 0.212 | C=CCc1cc(CNC(=O)c2cc(-c3ccc(C(C)(C)C)cc3)nn2C)ccc1OC(C)(C)C(=O)O [Example 3]
4 | 1.09 | 0.066 | 0.072 | CCCc1cc(CNC(=O)c2cc(-c3ccc(C(C)(C)C)cc3)nn2C)ccc1OC(C)(C)C(=O)O [Example 4, 2-[(4-{[{(3-[4-(1,1-dimethylethyl)phenyl]-1-methyl-1H-pyrazol-5-yl}carbonyl)amino]methyl}-2-propylphenyl)oxy]-2-methylpropanoic acid]
5 | > 10 | 0.301 | 0.444 | CCn1nc(-c2ccc(C(C)(C)C)cc2)cc1C(=O)NCc1ccc(OC(C)(C)C(=O)O)c(OC)c1 [Example 5]
6 | 2.06 | 0.002 | 0.008 | Cc1cc(CNC(=O)c2cc(-c3ccc(CC(C)C)cc3)n(C)n2)ccc1OC(C)(C)C(=O)O [Example 7, 2-methyl-2-[(2-methyl-4-{[({1-methyl-5-[4-(2-methylpropyl)phenyl]-1H-pyrazol-3-yl}carbonyl)amino]methyl}phenyl)oxy]propanoic acid]
7 | 1.07 | 0.051 | 0.059 | Cc1cc(CNC(=O)c2cc(-c3ccc(CC(C)C)cc3)nn2C)ccc1OC(C)(C)C(=O)O [Example 8, 2-methyl-2-[(2-methyl-4-{[({1-methyl-3-[4-(2-methylpropyl)phenyl]-1H-pyrazol-5-yl}carbonyl)amino]methyl}phenyl)oxy]propanoic acid]
8 | > 10 | 2.9 | 0.554 | COc1cc(CNC(=O)c2cc(-c3ccc(C(C)C)cc3)nn2C)ccc1OC(C)(C)C(=O)O [Example 10]
9 | 2.17 | 0.05 |  | Cc1cc(CNC(=O)c2cc(-c3ccc(C(C)(C)C)cc3)nn2C)ccc1OC(C)(C)C(=O)O [Example 11, 2-[(4-{[({3-[4-(1,1-dimethylethyl)phenyl]-1-methyl-1H-pyrazol-5-yl}carbonyl)amino]methyl}-2-methylphenyl)oxy]-2-methylpropanoic acid]
10 | > 10 | 1.05 | 0.432 | COc1cc(CNC(=O)c2cc(-c3ccc(C(C)(C)C)cc3)nn2C)ccc1OC(C)(C)C(=O)O [Example 12, 2-{[4-{[({3-[4-(1,1-dimethylethyl)phenyl]-1-methyl-1H-prazol-5-yl}carbonyl)amino]methyl}-2-(methyloxy)phenyl]oxy}-2-methyl propanoic acid]
11 | > 10 | 0.009 | 0.011 | CCn1nc(C(=O)NCc2ccc(OC(C)(C)C(=O)O)c(C)c2)cc1-c1ccc(C(C)(C)C)cc1 [Example 13, 2-[(4-{[({5-[4-(1,1-dimethylethyl)phenyl]-1-ethyl-1H-pyrazol-3-yl}carbonyl)amino]methyl}-2-methylphenyl)oxy]-2-methylpropanoic acid]
12 | > 10 | 0.177 | 0.13 | COc1cc(CNC(=O)c2cc(-c3ccc(CC(C)C)cc3)n(C)n2)ccc1OC(C)(C)C(=O)O [Example 14]
13 | 2.44 | 0.075 | 0.024 | CCn1nc(-c2ccc(C(C)(C)C)cc2)cc1C(=O)NCc1ccc(OC(C)(C)C(=O)O)c(C)c1 [Example 15, 2-[(4-{[({3-[4-(1,1-dimethylethyl)phenyl]-1-ethyl-1H-pyrazol-5-yl}carbonyl)amino]methyl}-2-methylphenyl)oxy]-2-methyl propanoic acid]
14 |  | 0.163 | 1.09 | Cn1nc(-c2ccc(C(C)(C)C)cc2)cc1C(=O)NCc1ccc(OC(C)(C)C(=O)O)cc1 [Example 16, 12-[(4-{[({3-[4-[1,1-dimethylethyl)phenyl]-1-methyl-1H-pyrazol-5-yl}carbonyl)amino]methyl}phenyl)oxy]-2-methylpropanoic acid]
15 |  | 0.07 | 0.376 | Cn1nc(C(=O)NCc2ccc(OC(C)(C)C(=O)O)cc2)cc1-c1ccc(C(C)(C)C)cc1 [Example 17]
16 | 4.02 | 0.004 | 0.009 | Cc1cc(CNC(=O)c2cc(-c3ccc(C(C)C)cc3)n(C)n2)ccc1OC(C)(C)C(=O)O [Example 18]
17 | 1.06 | 0.076 | 0.02 | Cc1cc(CNC(=O)c2cc(-c3ccc(N4CCCC4)cc3)n(C)n2)ccc1OC(C)(C)C(=O)O [Example 20, 2-methyl-2-[(2-methyl-4-{[({1-methyl-5-[4-(1-pyrrolidinyl)phenyl]-1H-pyrazol-3-yl}carbonyl)amino]methyl}phenyl)oxy]propanoic acid]
18 | 1.12 | 0.01 | 0.005 | Cc1cc(CNC(=O)c2cc(-c3ccc(N4CCCCC4)cc3)n(C)n2)ccc1OC(C)(C)C(=O)O [Example 21]
19 | 1.55 | 0.02 |  | Cc1cc(CNC(=O)c2cc(-c3ccc(-c4ccccc4)cc3)n(C)n2)ccc1OC(C)(C)C(=O)O [Example 22, 2-({4-[({[5-(4-biphenylyl)-1-methyl-1H-pyrazol-3-yl]carbonyl}amino)methyl]-2-methylphenyl}oxy)-2-methylpropanoic acid]
20 | 4.33 | 0.067 | 0.779 | Cc1cc(CNC(=O)c2cc(-c3cccc(N4CCCC4)c3)nn2C)ccc1OC(C)(C)C(=O)O [Example 23, 2-methyl-2-[(2-methyl-4-{[({1-methyl-3-[3-(1-pyrrolidinyl)phenyl]-1H-pyrazol 5-yl}carbonyl)amino]methyl}phenyl)oxy]propanoic acid]
21 | > 25 | 0.002 | 0.008 | Cc1cc(CNC(=O)c2cc(-c3ccc(C(C)(C)C)cc3)n(C)n2)cc(C)c1OC(C)(C)C(=O)O [Example 25, 2-{4-[({[5-(4-tert-butylphenyl)-1-methyl-1H-pyrazol-3-yl]carbonyl}amino)methyl]-2,6-dimethylphenoxy}-2-methylpropanoic acid]
22 |  | 0.094 | 0.028 | C=CCOc1ccc(-c2cc(C(=O)NCc3ccc(OC(C)(C)C(=O)O)c(C)c3)nn2C)cc1 [Example 59, 2-methyl-2-[(2-methyl-4-{[({1-methyl-5-[4-(2-propen-1-yloxy)phenyl]-1H-pyrazol-3-yl}carbonyl)amino]methyl}phenyl)oxy]propanoic acid]
